Results from patent publication US12194032B2, “Method of treating focal segmental glomerulosclerosis” (ChemoCentryx, Inc., priority 2016, dated 2025).

Key:
Format in all cases: in vivo
[1] = tested on: Adriamycin nephropathy female Balb/c mice; experiment: Adriamycin Nephropathy Model (Example 2); conditions: Adriamycin 7.5 mg/kg i.v. day 0; compound 1 90 mg/kg subcutaneously once daily; candesartan orally once daily; week 1, 2 and 3; vs vehicles
Experimental: (§1) The remnant kidney and the adryamicin drug-induced models are commonly used rodent models for FSGS (de Mik S M. Et al. Pathophysiology and treatment of focal segmental glomerulosclerosis: the role of animal models. BMC Nephrol. 2013 Apr. 1; 14:74). The 5/6 remnant kidney model is representative of secondary FSGS whereas the Adriamycin nephropathy model is representative of primary FSGS.
The experiment was performed in female Balb/c mice (Jackson Laboratories). The mice were kept on standard chow and had free access to water. 7.5 mg/kg Adriamycin (Selleck Chemicals) or saline (control) was injected in a tail vein in isoflurane-anesthetized animals at day 0. Compound 1 and its vehicle (1% HPMC) were dosed subcutaneously once daily at 90 mg/kg formulated in 1% HPMC. Candesartan and its vehicle (H2O) were dosed orally once daily. Twelve animals were used for each group.
[…] Urinary albumin was measured by ELISA (Bethyl Labs, Montgomery, TX), and the urinary albumin excretion rate (UAER) was calculated as micrograms per 24 hours. Urinary creatinine was measured by mass spectrometry. The albumin to creatinine ratio (ACR) was calculated as micrograms of albumin per milligram of creatinine.

[2] = tested on: 5/6 remnant kidney 129X1/SvJ mice; experiment: 5/6 Remnant Kidney Model (Example 1); conditions: 5/6 nephrectomized mice
Excerpt: as §1
The 5/6 remnant kidney 129X1/SvJ mice was obtained from Jackson Laboratories. The mice were kept on standard chow and had free access to water. The mice surgery was performed in two stages. Under isoflurane anesthesia, two-thirds of the left kidney mass was dissected. After 7 to 10 days, a right unilateral nephrectomy was performed. Six weeks after the 5/6 nephrectomy, the mice were randomized for the study. Compound 3 and its vehicle were dosed subcutaneously once daily at 100 mg/kg formulated in 1% HPMC. 6 animals were used for each group.
Urine samples were collected at weeks one and two by individually housing the mice in metabolic cages for 18 hours. Urinary albumin was measured by ELISA (Bethyl Labs, Montgomery, TX), and the urinary albumin excretion rate (UAER) was calculated as micrograms per 24 hours. Urinary creatinine was measured by mass spectrometry. The albumin to creatinine ratio (ACR) was calculated as micrograms of albumin per milligram of creatinine. At the end of the experiments (after 2 weeks of treatment), the kidneys were collected, fixed in formalin, embedded in paraffin, and cut into 3-μm-thick sections. Sections were stained for podocytes by immunohistochemistry with Wilms tumor protein 1 antibody (Abcam, Cambridge, MA). Glomerular cross-sectional area and podocyte number were determined in 20-30 glomeruli per mouse. Glomerulus volume and podocyte density were calculated from the immunohistochemistry data using the Weibel method. Mesangial expansion was measured by silver methenamine stain on 2-μm-thick paraffin sections by conventional methods.

[3] = tested on: 5/6 remnant kidney 129X1/SvJ mice; experiment: 5/6 Remnant Kidney Model with Combination Treatment (Example 3); conditions: 5/6 nephrectomized mice, compound 3 100 mg/kg subcutaneously once daily, candesartan 5 mg/kg orally once daily
Excerpt: as §1
The 5/6 remnant kidney 129X1/SvJ mice was obtained from Jackson Laboratories. The mice were kept on standard chow and had free access to water. The mice surgery was performed in two stages. Under isoflurane anesthesia, two-thirds of the left kidney mass was dissected. After seven to ten days, a right unilateral nephrectomy was performed. Three to six weeks after the 5/6 nephrectomy, the mice were randomized for the study (n=12 per group). Compound 3 and its vehicle were dosed subcutaneously once daily at 100 mg/kg formulated in 1% HPMC. […]
Urine samples were collected at week one, two and three by individually housing the mice in metabolic cages for 18 hours. Urinary albumin was measured by ELISA (Bethyl Labs, Montgomery, TX), and the urinary albumin excretion rate (UAER) was calculated as micrograms per 24 hours. Urinary creatinine was measured by mass spectrometry. The albumin to creatinine ratio (ACR) was calculated as micrograms of albumin per milligram of creatinine.

[4] = 100 mg/kg subcutaneously once daily, kidneys after 2 weeks of treatment

Compound | UACR levels (FIG. 8) [1] | proteinuria (UACR values, FIG. 1) ([2]; 100 mg/kg subcutaneously once daily in 1% HPMC, week 1 and 2, vs vehicle) | number of renal interstitial macrophages (macrophage content as percentage of total area, FIG. 2) [2, 4] | percentage of glomeruli with mesangiolysis (FIG. 6) [2, 4] | podocytes numbers per glomerular cross section (FIG. 4) [2, 4] | UACR values (FIG. 11) ([3]; week 1 and week 2) | UAER values (FIG. 10) ([3]; weeks 1, 2 and 3)
Cc1cnc(C(=O)c2ccnc3[nH]ccc23)c(NS(=O)(=O)c2ccc(Cl)c(C(F)(F)F)c2)c1 [compound 1] | reduction in UACR levels |  |  |  |  |  | 
O=C(c1ncc(Cl)cc1NS(=O)(=O)c1ccc(Cl)c(C(F)(F)F)c1)c1ccnc2[nH]ccc12 [compound 3] |  | reduces the profound proteinuria | reduces the number of renal interstitial macrophages | beneficial effect | increased podocytes numbers | reduction in UACR values | reduction in UAER values
